# From US20100267561A1, “HERBICIDAL PYRIDAZINONE DERIVATIVES” (priority 2007, published 2010)
# Like-named read-outs stand apart in the source and are kept apart here.
# Experiments:
# Type in all cases: in vivo
# [1] = test system: barnyardgrass (Echinochloa crus-galli); experiment: Test A pre-/postemergence plant response; conditions: Echinochloa crus-galli, 240 h, read-out: Plant response rating, Barnyardgrass; for pest or weed control at 125 g/ha: 125 g ai/ha; for pest or weed control at 500 g/ha: 500 g ai/ha
# In short: (§1)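 Seeds were planted in blended loam soil and sand, then treated preemergence by directed soil spray. At that time, emerged plants (one- to two-leaf, 2–10 cm) received postemergence applications of the same surfactant-containing formulation. Injury was assessed visually on a 0–100 scale after approximately 10 days.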
# [2] = test system: corn (Zea mays); experiment: Test A pre-/postemergence plant response; conditions: Zea mays, 240 h; for Corn plant response rating (crop injury, 0 = no effect, 100 = complete kill) at 125 g/ha: 125 g ai/ha; for Corn plant response rating (crop injury, 0 = no effect, 100 = complete kill) at 500 g/ha: 500 g ai/ha
# In short: as §1
# [3] = test system: velvetleaf (Abutilon theophrasti); experiment: Test A pre-/postemergence plant response
# In short: as §1
# [4] = test system: giant foxtail (Setaria faberi); experiment: Test A pre-/postemergence plant response; conditions: Setaria faberi, 240 h, read-out: Plant response rating, Foxtail, Giant; for pest or weed control at 125 g/ha: 125 g ai/ha; for pest or weed control at 500 g/ha: 500 g ai/ha
# In short: as §1
# [5] = test system: wheat (Triticum aestivum); experiment: Test A pre-/postemergence plant response; conditions: Triticum aestivum, 240 h, read-out: Plant response rating, Wheat; for plant injury at 125 g/ha: 125 g ai/ha; for plant injury at 500 g/ha: 500 g ai/ha
# In short: as §1
# [6] = test system: pigweed (Amaranthus retroflexus); experiment: Test A pre-/postemergence plant response; conditions: Amaranthus retroflexus, 240 h, read-out: Plant response rating, Pigweed; for pest or weed control at 125 g/ha: 125 g ai/ha; for pest or weed control at 500 g/ha: 500 g ai/ha
# In short: as §1
# [7] = test system: morningglory (Ipomoea coccinea); experiment: Test A pre-/postemergence plant response
# In short: as §1
# [8] = test system: large crabgrass (Digitaria sanguinalis); experiment: Test A pre-/postemergence plant response; conditions: Digitaria sanguinalis, 240 h, read-out: Plant response rating, Crabgrass, Large; for pest or weed control at 125 g/ha: 125 g ai/ha; for pest or weed control at 500 g/ha: 500 g ai/ha
# In short: as §1
# [9] = test system: catchweed bedstraw (Galium aparine); experiment: Test B pre-/postemergence plant response; conditions: Galium aparine, pre-emergence, Preemergence, read-out: Plant response rating, Galium
# Excerpt: (§2) Seeds of plant species selected from blackgrass (Alopecurus myosuroides), downy bromegrass (Bromus tectorum), green foxtail (Setaria viridis), Italian ryegrass (Lolium multiflorum), wheat (Triticum aestivum), wild oat (Avena fatua), catchweed bedstraw (Galium aparine), bermudagrass (Cynodon dactylon), surinam grass (Brachiaria decumbens), cocklebur (Xanthium strumarium), corn (Zea mays), large crabgrass (Digitaria sanguinalis), woolly cupgrass (Eriochloa villosa), giant foxtail (Setaria faberii), goosegrass (Eleusine indica), johnsongrass (Sorghum halepense), kochia (Kochia scoparia), lambsquarters (Chenopodium album), morningglory (Ipomoea coccinea), eastern black (E.B.) nightshade (Solanum ptycanthum), yellow nutsedge (Cyperus esculentus), pigweed (Amaranthus retroflexus), common ragweed (Ambrosia elation), Russian thistle (Salsola iberica), soybean (Glycine max), common (oilseed) sunflower (Helianthus annuus), and velvetleaf (Abutilon theophrasti) were planted and treated preemergence with test chemicals formulated in a non-phytotoxic solvent mixture which included a surfactant.
# (§3) At the same time, plants selected from these crop and weed species and also winter barley (Hordeum vulgare), canarygrass (Phalaris minor), chickweed (Stellaria media) and windgrass (Apera spica-venti) were treated with postemergence applications of some of the test chemicals formulated in the same manner. Plants ranged in height from 2 to 18 cm (1- to 4-leaf stage) for postemergence treatments.
# (§4) Plant species in the flooded paddy test consisted of rice (Oryza sativa), umbrella sedge (Cyperus difformis), ducksalad (Heteranthera limosa) and barnyardgrass (Echinochloa crus-galli) grown to the 2-leaf stage for testing. At time of treatment, test pots were flooded to 3 cm above the soil surface, treated by application of test compounds directly to the paddy water, and then maintained at that water depth for the duration of the test. Treated plants and controls were maintained in a greenhouse for 13 to 15 days, after which time all species were compared to controls and visually evaluated. Plant response ratings, summarized in Table B, are based on a scale of 0 to 100 where 0 is no effect and 100 is complete control. A dash (-) response means no test result.
# [10] = test system: yellow nutsedge (Cyperus esculentus); experiment: Test B pre-/postemergence plant response; conditions: Cyperus, read-out: Plant response rating, Nutsedge, Yellow; for pest or weed control at 16 g/ha: 16 g ai/ha; for pest or weed control at 31 g/ha: 31 g ai/ha, 100 complete control; for pest or weed control at 62 g/ha: 62 g ai/ha; for pest or weed control at 125 g/ha: 125 g ai/ha
# Excerpt: as §2, §3, §4
# [11] = test system: blackgrass (Alopecurus myosuroides); experiment: Test B pre-/postemergence plant response; conditions: Alopecurus myosuroides, read-out: Plant response rating, Blackgrass; for pest or weed control at 16 g/ha: 16 g ai/ha; for pest or weed control at 31 g/ha: 31 g ai/ha, 100 complete control; for pest or weed control at 62 g/ha: 62 g ai/ha; for pest or weed control at 125 g/ha: 125 g ai/ha
# Excerpt: as §2, §3, §4
# [12] = post-emergence, Postemergence, 0 to 100 scale, 0 no effect, 100 complete control
# [13] = pre-emergence, Preemergence, 0 to 100 scale (0 no effect, 100 complete control)
# [14] = Postemergence, 125 g ai/ha, 0 to 100 scale, 0 no effect, 100 complete control
# [15] = Postemergence, 500 g ai/ha, 0 to 100 scale, 0 no effect, 100 complete control
# [16] = Preemergence, 125 g ai/ha, 0 to 100 scale (0 no effect, 100 complete control)
# [17] = Preemergence, 500 g ai/ha, 0 to 100 scale (0 no effect, 100 complete control)
# [18] = post-emergence, Postemergence, scale 0 to 100
# [19] = post-emergence, Postemergence, scale 0 to 100, 0 no effect
# [20] = pre-emergence, Preemergence, scale 0 to 100 (0 no effect, 100 complete control)
# [21] = pre-emergence, Preemergence, 0 to 100 scale, 0 no effect
# [22] = pre-emergence, Preemergence, scale 0 to 100
smiles,measurement,setting,value
"CCc1cc(-c2ccc(C(F)(F)F)cc2)nn1-c1c(O)cnn(C)c1=O [Compound 11, 4-[5-ethyl-3-[4-(trifluoromethyl)phenyl]-1H-pyrazol-1-yl]-5-hydroxy-2-methyl-3(2H)-pyridazinone]",pest or weed control at 125 g/ha,[1]; [12],100%
same,pest or weed control at 500 g/ha,[1]; [12],100%
same,pest or weed control at 125 g/ha,[1]; [13],100%
same,pest or weed control at 500 g/ha,[1]; [13],100%
same,"Corn plant response rating (crop injury, 0 = no effect, 100 = complete kill) at 125 g/ha",[2]; [12],90%
same,"Corn plant response rating (crop injury, 0 = no effect, 100 = complete kill) at 500 g/ha",[2]; [12],90%
same,"Corn plant response rating (crop injury, 0 = no effect, 100 = complete kill) at 125 g/ha",[2]; [13],90%
same,"Corn plant response rating (crop injury, 0 = no effect, 100 = complete kill) at 500 g/ha",[2]; [13],100%
same,"Plant response rating, Velvetleaf",[3]; [14],0
same,"Plant response rating, Velvetleaf",[3]; [15],0
same,"Plant response rating, Velvetleaf",[3]; [16],0
same,"Plant response rating, Velvetleaf",[3]; [17],0
same,pest or weed control at 125 g/ha,[4]; [12],90%
same,pest or weed control at 500 g/ha,[4]; [12],100%
same,pest or weed control at 125 g/ha,[4]; [13],100%
same,pest or weed control at 500 g/ha,[4]; [13],100%
same,plant injury at 125 g/ha,[5]; [12],80%
same,plant injury at 500 g/ha,[5]; [12],100%
same,plant injury at 125 g/ha,[5]; [13],100%
same,plant injury at 500 g/ha,[5]; [13],100%
same,pest or weed control at 125 g/ha,[6]; [12],0%
same,pest or weed control at 500 g/ha,[6]; [12],0%
same,pest or weed control at 125 g/ha,[6]; [13],0%
same,pest or weed control at 500 g/ha,[6]; [13],30%
same,"Plant response rating, Morningglory",[7]; [14],0
same,"Plant response rating, Morningglory",[7]; [15],0
same,"Plant response rating, Morningglory",[7]; [16],0
same,"Plant response rating, Morningglory",[7]; [17],30
same,pest or weed control at 125 g/ha,[8]; [12],90%
same,pest or weed control at 500 g/ha,[8]; [12],100%
same,pest or weed control at 125 g/ha,[8]; [13],100%
same,pest or weed control at 500 g/ha,[8]; [13],100%
same,pest or weed control at 16 g/ha,"[9]; 16 g ai/ha, scale 0 to 100 (0 no effect, 100 complete control)",0%
same,pest or weed control at 31 g/ha,"[9]; 31 g ai/ha, 0 to 100 scale, 0 no effect, 100 complete control",0%
same,pest or weed control at 62 g/ha,"[9]; 62 g ai/ha, scale 0 to 100",0%
same,pest or weed control at 125 g/ha,"[9]; 125 g ai/ha, scale 0 to 100",0%
same,pest or weed control at 16 g/ha,[10]; [18],0%
same,pest or weed control at 31 g/ha,[10]; [19],0%
same,pest or weed control at 62 g/ha,[10]; [18],0%
same,pest or weed control at 125 g/ha,[10]; [18],0%
same,pest or weed control at 16 g/ha,[10]; [20],0%
same,pest or weed control at 31 g/ha,[10]; [21],0%
same,pest or weed control at 62 g/ha,[10]; [22],0%
same,pest or weed control at 125 g/ha,[10]; [22],0%
same,pest or weed control at 16 g/ha,[11]; [18],100%
same,pest or weed control at 31 g/ha,[11]; [19],100%
same,pest or weed control at 62 g/ha,[11]; [18],100%
same,pest or weed control at 125 g/ha,[11]; [18],100%
same,pest or weed control at 16 g/ha,[11]; [20],100%
same,pest or weed control at 31 g/ha,[11]; [21],100%
same,pest or weed control at 62 g/ha,[11]; [22],100%
same,pest or weed control at 125 g/ha,[11]; [22],100%
